Test results taken from the supplement of paper PMC6206229.
In brackets after ≈: the same amount, converted by molar mass.

Experiments:
[1] = test system: Staphylococcus aureus ATCC 700699 (MRSA); assay: minimum inhibitory concentration; extreme values may be limits of the assay
Procedure, shortened: (§1)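 The minimum inhibitory concentration was defined as the lowest concentration whose well remained blue rather than becoming pink. It was measured against methicillin-susceptible and methicillin-resistant Staphylococcus aureus by broth microdilution in 96-well plates according to CLSI guidance, with compounds at 0 to 100 µM incubated for 24 h at 37°C before 30 µl of 0.015% resazurin was added for 2–4 h. Each plate included positive controls.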

[2] = test system: Staphylococcus aureus ATCC 29213 (MSSA); assay: as above
Procedure, shortened: as §1

Compound	minimum inhibitory concentration [1] [µM]	minimum inhibitory concentration [2] [µM]
CC(=O)N1CCN(c2ccc(Oc3ccc(Cl)cc3O)cc2)CC1	> 50	> 50
Cc1ccc(NC(=O)c2nc[nH]c2C(=O)Nc2nc3ccccc3[nH]2)c(C)c1	> 50	> 50
CC1CC1C(=O)NC1CCN(CC2(c3ccccc3)CCCCC2)CC1 (configuration not stated)	> 50	> 50
CNC1C(OC2C(OC3C(O)C(O)C(N=C(N)N)C(O)C3N=C(N)N)OC(C)C2(O)C=O)OC(CO)C(O)C1O (configuration not stated)	> 50	> 50
COc1ccc(-c2cnc3cnc(-c4cccc(OC(C)C)c4)cn23)cc1	> 50	> 50
COc1ccc(N(CCc2cccc(C)n2)C(=O)C2CCCCC2)cc1	> 50	> 50
O[C@@H](c1cc(C(F)(F)F)nc2c(C(F)(F)F)cccc12)[C@H]1CCCCN1	25 (≈ 9.46 µg/mL)	50 (≈ 18.9 µg/mL)
N#Cc1ccc(-c2cnc(N)c(-c3ccc(C(N)=O)cc3)n2)cc1	> 50	> 50
COc1cccc(OC)c1C(=O)Nc1ccc(Cl)c(-c2nc3ccccc3s2)c1	> 50	> 50
Nc1ncnc2[nH]nc(Cc3cccc4ccccc34)c12	> 50	> 50
CC1(C)Cc2c(c(N3CCOCC3)nc3snc(Br)c23)CO1	> 50	> 50
CC1=Nc2ccc(Cl)cc2C(O)(c2ccc(C)cc2)N1CCN1CCCCC1 (configuration not stated)	> 50	> 50
Cc1ccc2nc(C)c(-c3ccn(Cc4ccccc4)n3)n2c1	> 50	> 50
CC(C)(C)c1ccc(N[C@@H]2CCCC[C@H]2NC(=O)c2ccco2)cc1	> 50	> 50
Nc1ccc2ncnc(Nc3ccc(OCc4cccc(F)c4)c(Cl)c3)c2c1	> 50	> 50
COc1ccc(-c2cc(NC(=O)c3ccc(F)cc3Cl)ccc2OC)cc1	> 50	> 50
CCOC(=O)c1noc(N)c1-c1ccccc1	50 (≈ 11.6 µg/mL)	50 (≈ 11.6 µg/mL)
CN(C(=O)c1cc2c(-c3cncnc3)cccc2[nH]1)c1ccccc1	> 50	> 50
Cc1cc(C2=NOC(c3cc(Cl)c(F)c(Cl)c3)(C(F)(F)F)C2)ccc1C(=O)NCc1ccc2c(c1)C(C)(C)OB2O (configuration not stated)	> 50	> 50
Cc1ccc(-c2nc(CN(Cc3ccccn3)C(C)C)cs2)o1	> 50	> 50
CO[C@@H](C(=O)N1Cc2[nH]nc(NC(=O)c3ccc(N4CCN(C)CC4)cc3)c2C1)c1ccccc1	> 50	> 50
COc1ccc(-c2nn(C(C)C)c3ncnc(N)c23)cc1OC	> 50	> 50
CO[C@H]1/C=C\O[C@@]2(C)Oc3c(C)c(O)c4c(O)c(/c(=C/NN5CCN(C)CC5)c(O)c4c3C2=O)=N\C(=O)/C(C)=C\C=C/[C@H](C)[C@H](O)[C@@H](C)[C@@H](O)[C@@H](C)[C@H](OC(C)=O)[C@@H]1C	50 (≈ 41.1 µg/mL)	0.09 (≈ 0.0741 µg/mL)
CC(C(=O)N1CCCC1)N1CCN(S(=O)(=O)c2ccc(C(C)(C)C)cc2)CC1 (configuration not stated)	> 50	> 50
Cc1nc2ccccn2c1C(=O)NCc1ccc(Cl)cc1	> 50	> 50
CC(C)C(C(=O)Nc1ccc(S(=O)(=O)N(C)C)cc1)c1ccc(Cl)cc1 (configuration not stated)	> 50	> 50

Compound	minimum inhibitory concentration [1] [µM]	minimum inhibitory concentration [2] [µM]
COc1ccccc1OCCCCn1c(C2CC2)nc2ccccc21	> 50	> 50
O=C(Nc1ccccc1)c1ccc(-c2cc3ccncc3cc2OC2CCNCC2)s1	50 (≈ 21.5 µg/mL)	50 (≈ 21.5 µg/mL)
CC(=O)NC[C@@H]1CN(c2ccc(N3CCOCC3)c(F)c2)C(=O)O1	3.12 (≈ 1.05 µg/mL)	6.25 (≈ 2.11 µg/mL)
O=C(CN1CCOCC1)Nc1ccc2ncnc(Nc3ccc(OCc4cccc(F)c4)c(Cl)c3)c2c1	> 50	> 50
CC(=O)Nc1ccc(NC(=O)c2cc(-c3cc(Cl)ccc3O)n[nH]2)cc1	> 50	> 50
c1ccc2c(c1)CN(CC1CC1)CC1(CCN(Cc3c[nH]c4cnccc34)CC1)O2	50 (≈ 20.1 µg/mL)	50 (≈ 20.1 µg/mL)
Cc1c[nH]c(CCNC(=O)c2cc(-c3ccc(Cl)cc3)cs2)n1	> 50	> 50
CNC(=O)C1Cc2c([nH]c3cc(Cl)ccc23)C2(CCN(CCc3ccccc3)CC2)N1 (configuration not stated)	> 50	> 50
O=C(CCC1CCCCC1)Nc1cccc(-c2nnc(-c3ccco3)o2)c1	> 50	> 50
Cc1nn2c(O)c3c(nc2c1-c1ccc(F)cc1)CCCC3	> 50	> 50
COc1cccc(-n2nnnc2S(=O)(=O)Cc2ccccc2)c1	50 (≈ 16.5 µg/mL)	50 (≈ 16.5 µg/mL)
COc1ccc(Cn2cnc3c(-c4ccco4)nc(Cl)nc32)cc1	> 50	> 50
Cc1nc(-c2ccccn2)nc(N(C)CCc2ccccc2)c1Cl	50 (≈ 16.9 µg/mL)	50 (≈ 16.9 µg/mL)
CS(=O)(=O)c1cccc(-c2cnc3[nH]cc(-c4ccc(CCC(=O)O)cc4)c3c2)c1	> 50	> 50
Oc1c(I)cc(I)c2cccnc12	50 (≈ 19.8 µg/mL)	> 50
CNC(=O)C1Cc2ccccc2N1C(=O)Cc1ccc(F)cc1 (configuration not stated)	> 50	> 50
Cc1cccc(NC(=O)c2cc(S(=O)(=O)N(C)c3ccc(F)cc3)ccc2Cl)n1	> 50	> 50
COc1cc(CN2CCC3(C=Cc4ccccc43)CC2)cc2c1OCO2	> 50	> 50
CS(=O)(=O)c1ccc(C(=O)N(CC2CCCO2)c2nc3ccccc3s2)cc1[N+](=O)[O-] (configuration not stated)	> 50	> 50
CC(C)=CCC/C(C)=C/CNCCNC1C2CC3CC(C2)CC1C3 (configuration not stated)	50 (≈ 16.5 µg/mL)	50 (≈ 16.5 µg/mL)
Nc1ncc(-c2cn[nH]c2)cc1-c1nc2cc(Cl)cnc2[nH]1	> 50	> 50
CN1CCN(S(=O)(=O)c2ccc(-c3ccc4c(Nc5ccc6nn[nH]c6c5)ccnc4c3)cc2)CC1	> 50	> 50
Nc1nc(N)c2c3c(sc2n1)CN(Cc1ccccc1)CC3	> 50	> 50
CCCCc1ccc(C(=O)Nc2nccc3ccccc23)nc1	> 50	> 50
Cc1cccc(-c2nc(Nc3ccncn3)c3sccc3n2)n1	> 50	> 50
